Experimental data as given in PMC7606179 (Acta Pharmaceutica Sinica. B, 2020).
“Also recorded” adds a separate entry of the source.

Columns and labels:
[1] = tested on: PR8 resistant recombinant virus with H274Y mutation in MDCK cells; type: cell-based
[2] = molecular target: Oseltamivir resistant (with H274Y mutation) neuraminidase (Influenza A virus, UniProt P03468, H260Y); type: biochemical, recombinant PR8 virus with H274Y mutation

SMILES	NA inhibitory activity on oseltamivir resistant NA [2]	also measured
O=C(/C=C/c1ccc(O)cc1)OC[C@H]1O[C@@H](Oc2c(-c3ccc(O)cc3)oc3cc(O)cc(O)c3c2=O)[C@H](O)[C@@H](O)[C@@H]1O [B23, Tiliroside]		Effect on replication of oseltamivir resistant (H274Y) PR8 virus in MDCK cells [1]: obviously reduce; also recorded: greatly reduce
CCOC(=O)C1=C[C@@H](OC(CC)CC)[C@H](NC(C)=O)[C@@H](N)C1 [Oseltamivir]		Anti-virus effect on resistant virus with NA H274Y mutation in MDCK cells [1]: didn't show obvious anti-virus effects
COC(=O)C1CC(=O)c2oc(=O)c3cc(O)c(O)c(O)c3c21 (stereo not shown) [B15, Methyl brevifolin carboxylate]	can obviously inhibit NA activities	
O=c1oc2c(O)c(O)cc3c(=O)oc4c(O)c(O)cc1c4c23 [B21, Ellagic acid]	can obviously inhibit NA activities	
